Reference: paper PMC10761937, “Functional engineering of human iPSC‐derived parasympathetic neurons enhances responsiveness to gastrointestinal hormones” (FEBS Open Bio, 2023)

Experiments:
rat nodal ganglion cells = details: various concentrations; ref [31], [32], [33], [34]; cited from earlier work
Text: Previous reports indicate that rat nodal ganglion cells respond to various concentrations of hormones, including CCK, GLP1, PYY, and 5‐HT [31, 32, 33, 34]. […] However, it is noteworthy that the overexpression of these receptors in our model may not reconstruct natural expres ...

NPY2R‐neurons [1] = test: Ca^2+ imaging, NPY2R‐neurons (iPSC‐derived); assay type: cell-based, human
Experimental: (§1) Before initiating differentiation, the iPSCs (1–2 × 10^5 cells·cm^−2; Cell lines and cell culture section) were transferred to 6‐well plates (Corning, Inc., Corning, NY, USA) coated with 2‐methacryloyloxyethyl phosphorylcholine (MPC) polymer (Lipidure CM5206E; NOF, Tokyo, Japan). The cells were maintained in mTeSR1 cGMP medium containing 10 μM Y‐27632 (Fujifilm Wako Pure Chemical Industries) for 2 or 3 days to form embryoid body (EBs) in a rotary shaker at 95 r.p.m. (OS‐762RC; Optime, Tokyo, Japan). Subsequently, iPSCs were differentiated into neural crest cells (NCCs), as previously reported. Briefly, NCCs were induced from Ebs using knockout serum replacement (KSR) medium and N2 medium with graded addition of nerve growth factors and signaling factors. KSR medium was composed of DMEM‐F12 (Fujifilm Wako Pure Chemical Industries), 20% KSR (Thermo Fisher Scientific), 1% NEAA, 1% monothioglycerol (Fujifilm Wako Pure Chemical Industries), and 1% P/S. N2 medium consisted of DMEM‐F12, 1% N2 supplement (Fujifilm Wako Pure Chemical Industries), 1% NEAA, and 1% P/S. When EB formation was considered day 0 of induction, the medium was changed at days 2, 5, 7, 9, and 12. […]

NPY2R‐neurons [2] = test: MEA recording of neuronal firing, NPY2R‐neurons; assay type: cell-based, human; details: PYY, 10 nM or 100 nM (both printed in Fig. 6 legend); day 27; 0 nM n = 8 electrodes, 100 nM n = 6 electrodes; Fig. 6F
Experimental: as §1

Row | Substance | Response of rat nodal ganglion cells (rat nodal ganglion cells) | Intracellular Ca^2+ concentration (traces) (NPY2R‐neurons [1]; 100 nM PYY (PYY (3–36) in method), NPY2R‐neurons day 35, Fluo‐8 AM, Fig. S5C) | Fluorescence intensity (ΔF stim/F 0) (NPY2R‐neurons [1]; PYY, 10 nM per Fig. 6 legend (100 nM in text and Fig. S5C), day 35, n = 10, Student's t‐test vs. 0 nM, Fig. 6E) | Firing frequency (NPY2R‐neurons [2])
1 | GLP1: GLP1 (4280‐v; Peptide Institute, Inc.); GLP1 (7–37) in Ca2+ imaging (HAEGTFTSDVSSYLEGQAAKEFIAWLVKGRG; Glucagon-like peptide 1(7-37); UniProt P01275 98-128, looked up) | respond | – | – | –
2 | PYY: PYY (4400‐v; Peptide Institute, Inc.); PYY (3–36) in Ca2+ imaging | respond | increased intracellular Ca^2+ concentration | significantly increased fluorescence intensity | significantly increased fluorescence intensity and firing frequency
